Measured values from patent publication US12527849B2, “Apparatus for determining administration form of a composition of an engineered virus-based nanoparticle for a treatment of an autoimmune condition” (Diamante Srl, priority 2021, dated 2026).

Experiments:
TGF-β1 = experiment: Cytokine ELISA in CIA mice, day 60: TGF-β1; type: in vivo; settings: serum pooled from five CIA mice
Description: (§1) With continued reference to FIG. 1, in some embodiments, administration 116 may be done to an animal. As a non-limiting example, the animal may include a mouse, a fish, a rabbit, human, and the like. As a non-limiting example, administration 116 of composition of the engineered virus-based nanoparticle for a treatment of an autoimmune condition may be done to dilute, brown, and non-agouti (DBA) mice based on their susceptibility to collagen-induced arthritis (CIA). Female DBA/1 mice 6 to 8 weeks of age may be maintained under specific pathogen-free conditions. CIA may be induced by the intradermal tail base injection of 100 μg of chicken type II collagen (Sigma-Aldrich) as previously described. Five mice per group may be immunized on days 0 and 21 to induce arthritis. The onset of disease may be confirmed on the day that swelling or erythema may be observed in any paw, typically 4 to 10 days after the second immunization. Each experimental group may be treated seven times, 5 days apart, starting from day 28 after the first immunization, with intraperitoneal injections of saline (200 μI per mouse), TBSV·pLIp1, TBSV·pFADK2, pLIp1+IFA, and pFADK2+IFA (all 50 μg per mouse in 200 μl) or dexamethasone (5 μg per mouse in 200 μl). […] CIA may be assessed using a macroscopic score system based on the visual identification of arthritic limbs.

IFN-γ = experiment: Cytokine ELISA in CIA mice, day 60: IFN-γ; type: in vivo
Description: as §1, with “immunization.” for “immunization. Each experimental group may be treated seven times, 5 days apart, starting from day 28 after the first immunization, with intraperitoneal injections of saline (200 μI per mouse), TBSV·pLIp1, TBSV·pFADK2, pLIp1+IFA, and pFADK2+IFA (all 50 μg per mouse in 200 μl) or dexamethasone (5 μg per mouse in 200 μl).”, “limbs. The clinical severity of arthritis may be evaluated as follows: Each mouse may be inspected every 2 to 3 days for three different parameters: (i) swelling of the hind ankle and foot, measured with calipers; (ii) erythema of each leg; and (iii) swelling of the fingers. The RA index for each mouse was expressed as the mean of the three scores from the individual parameters. At the end of the experiment (60 days), we determined the proportion of CD25+Foxp3+ cells in the lymph nodes and measured cytokine titers in the lymph nodes, joints, and serum.” for “limbs.”
With continued reference to FIG. 1, in some embodiments, processor 104 may determine critical administration 124 as a function of a cytokine profile and a proportion of CD25^+ Foxp3^+ cells. […] In some embodiments, to quantify cytokines in DBA mice, joint tissues may be pulverized and resuspended in 1 ml of lysis medium per 100-mg joint weight for 60 min at 37′C, followed by centrifugation to remove debris. […]

C[C@@H]1C[C@H]2[C@@H]3CCC4=CC(=O)C=C[C@]4(C)[C@@]3(F)[C@@H](O)C[C@]2(C)[C@@]1(O)C(=O)CO [Dexamethasone, dexamethasone]
TGF-β1 (TGF-β1): 10385.0 pg/mL
IFN-γ J (IFN-γ; joint supernatant, CIA mice, day 60, mean n=3): 187.23 pg/mL
IFN-γ LN (IFN-γ; lymph node supernatant, CIA mice, day 60, mean n=3): 210.86 pg/mL
IFN-γ S (IFN-γ; serum pooled from five CIA mice, day 60): 75.6 pg/mL
